Experimental findings from US4073903A, “3-Desacetoxymethyl-3- 5'(1-methyltetrazolyl)thio!methyl-7- 1-(4-nitr oimidazolyl)acetyl!aminocephalosporanic acid” (Pierrel S.p.A., priority 1975, dated 1978) are described below.

Series [1] has as its system Klebsiella pneumoniae. Kind of series: MIC against clinical isolates, broth dilution test (Table II). The following applies: Klebsiella pneumoniae, 24 h. On the technique in general: In broth dilution the organism is exposed to a series of concentrations in liquid medium.
The subject of series [2] is Escherichia coli. Kind of series: MIC against clinical isolates, broth dilution test (Table III). The note with it: Escherichia coli, 24 h.
In series [3] the test system is Escherichia coli. In words: Treatment of mice systemically infected with Escherichia coli (Table V). The following applies: in Mus musculus, 168 h, read-out: ED50 per treatment.
The subject of series [4] is Klebsiella pneumoniae. The note with it: in Mus musculus, 168 h, read-out: ED50 per treatment.
The test system of series [5] is Salmonella essen. Kind of series: MIC against Ampicillin-resistant clinical isolates, broth dilution test (Table IV). The following applies: Salmonella enterica, 24 h, read-out: Minimun inhibitory concentration (MIC).
For series [6], the system named is Salmonella wien. The series is described as above. The following applies: Salmonella enterica, 24 h.
The test system of series [7] is Salmonella heidelberg. The series is described as above. The following applies: Salmonella enterica, 24 h, read-out: Minimun inhibitory concentration (MIC).
A short description of series [8]: Solubility. Type of series: physicochemical. The note with it: sodium salt; water.
A short description of series [9]: Stability as a solid. The format is physicochemical.

In brackets after ≈: the same amount, converted by molar mass. Counter-ions that a name gives are not always drawn. Like-named read-outs stand apart in the source and are kept apart here.

Regarding `Cc1nnc(SCC2=C(C(=O)O)N3C(=O)[C@@H](NC(=O)Cn4cnnn4)[C@H]3SC2)s1` [Cefazolin, reference compound], the MIC in series [1] (read-out: Minimum inhibitory concentration (MIC), clinical isolate LRP 128) amounted to 25 µg/mL (≈ 55 µM); in series [1] (read-out: Minimum inhibitory concentration (MIC), clinical isolate LRP 129), 3.12 µg/mL (≈ 6.86 µM); in series [1] (read-out: Minimum inhibitory concentration (MIC), clinical isolate LRP 130), 25 µg/mL (≈ 55 µM); in [1] (read-out: Minimum inhibitory concentration (MIC), clinical isolate LRP 131), 25 µg/mL (≈ 55 µM); in series [1] (read-out: Minimum inhibitory concentration (MIC), clinical isolate LRP 132) it was 1.56 µg/mL (≈ 3.43 µM); in series [1] (read-out: Minimum inhibitory concentration (MIC), clinical isolate LRP 133) it was 1.56 µg/mL (≈ 3.43 µM). Besides, the MIC in series [1] (read-out: Minimum inhibitory concentration (MIC), clinical isolate LRP 134) was found to be 3.12 µg/mL (≈ 6.86 µM); in series [1] (read-out: Minimum inhibitory concentration (MIC), clinical isolate LRP 135) it was 25 µg/mL (≈ 55 µM); in series [1] (read-out: Minimum inhibitory concentration (MIC), clinical isolate LRP 136) it was 50 µg/mL (≈ 110 µM); in series [1] (read-out: Minimum inhibitory concentration (MIC), clinical isolate LRP 137) it was 0.25 µg/mL (≈ 0.55 µM); in series [2] (read-out: Minimum inhibitory concentration (MIC), clinical isolate LRP 87), 25 µg/mL (≈ 55 µM); in series [2] (read-out: Minimum inhibitory concentration (MIC), clinical isolate LRP 94) it was 6.25 µg/mL (≈ 13.8 µM). The MIC in series [2] (read-out: Minimum inhibitory concentration (MIC), clinical isolate LRP 96) worked out at 6.25 µg/mL (≈ 13.8 µM); in [2] (read-out: Minimum inhibitory concentration (MIC), clinical isolate LRP 110), 6.25 µg/mL (≈ 13.8 µM); in [2] (read-out: Minimum inhibitory concentration (MIC), clinical isolate LRP 143) it was 1.56 µg/mL (≈ 3.43 µM); in series [2] (read-out: Minimum inhibitory concentration (MIC), clinical isolate LRP 150) it was 12.5 µg/mL (≈ 27.5 µM); in [2] (read-out: Minimum inhibitory concentration (MIC), clinical isolate LRP 151) it was 12.5 µg/mL (≈ 27.5 µM); in series [2] (read-out: Minimum inhibitory concentration (MIC), clinical isolate LRP 152), 100 µg/mL (≈ 220 µM). Also, the MIC in [2] (read-out: Minimum inhibitory concentration (MIC), clinical isolate LRP 154) amounted to 3.12 µg/mL (≈ 6.86 µM); in [2] (read-out: Minimum inhibitory concentration (MIC), clinical isolate LRP 155), 1.56 µg/mL (≈ 3.43 µM); in series [2] (read-out: Minimum inhibitory concentration (MIC), clinical isolate LRP 156) it was 6.25 µg/mL (≈ 13.8 µM); in series [2] (read-out: Minimum inhibitory concentration (MIC), clinical isolate LRP 158), 25 µg/mL (≈ 55 µM); in [2] (read-out: Minimum inhibitory concentration (MIC), clinical isolate LRP 159), 1.56 µg/mL (≈ 3.43 µM); in series [2] (read-out: Minimum inhibitory concentration (MIC), clinical isolate LRP 163), 3.12 µg/mL (≈ 6.86 µM). Besides, the MIC in series [5] came to 6.25 µg/mL (≈ 13.8 µM); in [6] (read-out: Minimun inhibitory concentration (MIC), Ampicillin-resistant clinical isolate LRP 138), 25 µg/mL (≈ 55 µM); in [6] (read-out: Minimun inhibitory concentration (MIC), Ampicillin-resistant clinical isolate LRP 140) it was 50 µg/mL (≈ 110 µM); in [6] (read-out: Minimun inhibitory concentration (MIC), Ampicillin-resistant clinical isolate LRP 141), 100 µg/mL (≈ 220 µM); in [7], 12.5 µg/mL (≈ 27.5 µM). The ED50 (usually the dose that gives a 50% effect, or the effect in half of the subjects) worked out at 35 mg/kg in [3] and 90 mg/kg in [4].
With `Cn1nnnc1SCC1=C(C(=O)O)N2C(=O)C(NC(=O)Cn3cnc([N+](=O)[O-])c3)C2SC1` (stereo not drawn) [sodium salt], in series [8], the solubility (in general, how much of the substance goes into solution per volume) is ~500 mg/mL. Moreover, the Stability entry in [9] was “stable as a solid”.
